Results from patent US8871767B2, “2-arylimidazo[1,2-B]pyridazine, 2-phenylimidazo[1,2-A]pyridine, and 2-phenylimidazo[1,2-A]pyrazine derivatives” (Hengrui (USA) Ltd., priority 2010, dated 2014).
Read-outs that look alike come from different tables or passages of the source.

Legend:
[1] = test system: Hedgehog pathway activation on 10T1/2/Smo#3 cells (C3H10T1/2 cells transfected with human Smoothened receptor); test: Hedgehog pathway activation on 10T1/2/Smo#3 cells measured by ALP activity; format: cell-based; conditions: Mus musculus, C3H 10T1/2, 10T1/2/Smo#3 cells
Summary of the method: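 Inhibition of alkaline phosphatase induction, read fluorometrically from 4-methylumbelliferyl phosphate conversion, gave IC50 values; CellTiter-Blue tracked viability in parallel. Cells were the human Smo-transfected 10T1/2/Smo#3 pool, stimulated by 10-20% hShh conditioned medium or the Smo agonist SAG (500 nM).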

[2] = test system: Hedgehog pathway activation (GLi-luciferase reporter) in Shh Light II reporter cells; test: Hedgehog pathway activation on Shh Light II reporter cells measured by luciferase activity; format: cell-based; conditions: Mus musculus, Shh Light II
Summary of the method: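 Shh Light II reporter cells carrying a hedgehog-responsive GLi-luciferase reporter were stimulated either with 500 nM SAG, a direct Smoothened agonist, or with conditioned media containing human Sonic Hedgehog (hShh). Test compounds were evaluated for blocking this pathway activation, quantified by luciferase activity. Cell viability was monitored in parallel with the Celltiter-Blue® assay.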

[3] = measured by ALP activity, read-out: ALP (IC50, inhibition of Hedgehog pathway activation)
[4] = hShh activation, read-out: Shh (IC50, inhibition of Hedgehog pathway activation)
[5] = hShh activation, ALP activity, read-out: 10T1/2/Smo#3 ALP activity (hShh Activation)
[6] = SAG activation (500 nM SAG), read-out: Shh Light II luciferase activity (SAG activation)
[7] = hShh activation, read-out: Shh Light II luciferase activity (hShh activation)

**Q.** With Cc1ccc(-c2cn3nc(-c4cc(C(F)(F)F)ccc4F)ccc3n2)cc1NC(=O)C(C)(C)C [Example 221, N-(5-(6-(2-fluoro-5-(trifluoromethyl)phenyl)imidazo[1,2-b]pyridazin-2-yl)-2-methylphenyl)pivalamide] as the molecule, how does the IC50 [1, 3] read?
**A.** Its IC50 is 0.105 µM.

**Q.** And the IC50 [2, 4]?
**A.** Its IC50 is 0.086 µM.

**Q.** For O=C(Nc1cc(-c2cn3nc(-c4cccnc4C(F)(F)F)ccc3n2)ccc1Cl)NC1CC1 [Example 654, 1-(2-chloro-5-(6-(2-(trifluoromethyl)pyridin-3-yl)imidazo[1,2-b]pyridazin-2-yl)phenyl)-3-cyclopropylurea], which IC50 [1, 3] is on record?
**A.** The IC50 was 0.764 µM.

**Q.** And the IC50 [2, 4]?
**A.** Its IC50 is 0.228 µM.

**Q.** With CC(C)(C)C(=O)Nc1cc(-c2cn3nc(Oc4ccc(F)cc4)ccc3n2)ccc1C(F)(F)F [Example 196, N-(5-(6-(4-fluorophenoxy)imidazo[1,2-b]pyridazin-2-yl)-2-(trifluoromethyl)phenyl)pivalamide] as the molecule, how does the IC50 [1, 5] read?
**A.** The IC50 was 0.3 to 3 µM.

**Q.** And the IC50 [1, 3]?
**A.** The IC50 was 1.62 µM.

**Q.** And the IC50 [2, 6]?
**A.** The IC50 was 3 to 30 µM.

**Q.** And the IC50 [2, 4]?
**A.** The IC50 was 0.726 µM.

**Q.** And the IC50 [2, 7]?
**A.** The IC50 was 0.3 to 3 µM.

**Q.** How did the IC50 [1, 5] turn out when COc1ccc2nc(-c3ccc(C)c(NC(=O)Cc4ccc(Cl)cc4)c3)cn2n1 [Example 101, 2-(4-chlorophenyl)-N-(5-(6-methoxyimidazo[1,2-b]pyridazin-2-yl)-2-methylphenyl)acetamide] was run?
**A.** Its IC50 is 3 to 30 µM.

**Q.** And the IC50 [1, 3]?
**A.** The IC50 was 7.01 µM.

**Q.** What about the IC50 [2, 6] of the same molecule?
**A.** The IC50 was 3 to 30 µM.

**Q.** And the IC50 [2, 4]?
**A.** The IC50 was 0.89 µM.

**Q.** And the IC50 [2, 7]?
**A.** The IC50 was 0.3 to 3 µM.

**Q.** For Cc1ccc(-c2ccc3nc(-c4ccc(C(F)(F)F)c(NC(=O)C(C)(C)C)c4)cn3n2)cc1 [Example 239, N-(5-(6-p-tolylimidazo[1,2-b]pyridazin-2-yl)-2-(trifluoromethyl)phenyl)pivalamide], which IC50 [1, 3] is on record?
**A.** Its IC50 is 0.335 µM.

**Q.** And the IC50 [2, 4]?
**A.** Its IC50 is 0.523 µM.

**Q.** Which results are given for CC(C)c1ccc2nc(-c3ccc(C(F)(F)F)c(NC(=O)C(C)(C)C)c3)cn2n1 [Example 140, N-(5-(6-isopropylimidazo[1,2-b]pyridazin-2-yl)-2-(trifluoromethyl)phenyl)pivalamide]?
**A.** IC50 [1, 3]: 0.314 µM; IC50 [2, 4]: 0.721 µM

**Q.** Which results are given for COc1ccc2nc(-c3cc(NC(=O)C(C)(C)C)c(C)cc3C)cn2n1 [Example 106, N-(5-(6-methoxyimidazo[1,2-b]pyridazin-2-yl)-2,4-dimethylphenyl)pivalamide]?
**A.** IC50 [1, 5]: 0.3 to 3 µM; IC50 [1, 3]: 2.5 µM; IC50 [2, 6]: 0.3 to 3 µM; IC50 [2, 4]: 0.774 µM; IC50 [2, 7]: 0.3 to 3 µM

**Q.** How did the IC50 [1, 3] turn out when Cc1ccc(-c2cn3nc(-c4ccc(F)nc4F)ccc3n2)cc1NC(=O)C(C)(C)C [Example 280, N-(5-(6-(2,6-difluoropyridin-3-yl)imidazo[1,2-b]pyridazin-2-yl)-2-methylphenyl)pivalamide] was run?
**A.** Its IC50 is 0.236 µM.

**Q.** And the IC50 [2, 4]?
**A.** Its IC50 is 0.475 µM.

**Q.** How did the IC50 [1, 3] turn out when CC(C)(C)C(=O)Nc1cc(-c2cn3nc(N4CCCCC4)ccc3n2)ccc1C(F)(F)F [Example 288, N-(5-(6-(piperidin-1-yl)imidazo[1,2-b]pyridazin-2-yl)-2-(trifluoromethyl)phenyl)pivalamide] was run?
**A.** The IC50 was 0.258 µM.

**Q.** What about the IC50 [2, 4] of the same molecule?
**A.** The IC50 was 0.345 µM.

**Q.** With CCC(CO)Nc1ccc2nc(-c3ccc(C(F)(F)F)c(NC(=O)C(C)(C)C)c3)cn2n1 (stereo not drawn) [Example 303, N-(5-(6-(1-hydroxybutan-2-ylamino)imidazo[1,2-b]pyridazin-2-yl)-2-(trifluoromethyl)phenyl)pivalamide] as the molecule, how does the IC50 [1, 5] read?
**A.** Its IC50 is 0.3 to 3 µM.

**Q.** What about the IC50 [1, 3] of the same molecule?
**A.** The IC50 was 0.783 µM.

**Q.** And the IC50 [2, 6]?
**A.** The IC50 was 0.3 to 3 µM.

**Q.** And the IC50 [2, 4]?
**A.** Its IC50 is 0.994 µM.

**Q.** And the IC50 [2, 7]?
**A.** Its IC50 is 0.3 to 3 µM.

**Q.** What does the source list for Cc1ccc(-c2cn3nc(C4=CCC(C)(C)CC4)ccc3n2)cc1NC(=O)C(C)(C)C [Example 444, N-(5-(6-(4,4-dimethylcyclohex-1-enyl)imidazo[1,2-b]pyridazin-2-yl)-2-methylphenyl)pivalamide]?
**A.** IC50 [1, 3]: 0.604 µM; IC50 [2, 4]: 1.24 µM

**Q.** For CCOC(=O)CCCCCCOc1ccc(-c2ccc3nc(-c4ccc(C)c(NC(=O)C(C)(C)C)c4)cn3n2)c(C(F)(F)F)c1 [Example 413, ethyl 7-(4-(2-(4-methyl-3-pivalamidophenyl)imidazo[1,2-b]pyridazin-6-yl)-3-(trifluoromethyl)phenoxy)heptanoate], which IC50 [1, 3] is on record?
**A.** Its IC50 is 0.548 µM.

**Q.** And the IC50 [2, 4]?
**A.** The IC50 was 0.318 µM.
